# Tests used:
# [1] = tested on: hydrochloric acid-ethanol induced ulcer; experiment: Hydrochloric acid-ethanol induced ulcer; type: in vivo, Wister male rats; details: for Suppression / Ulcer index: 60% ethanol containing 150 mM HCl, 1 hour; for Ulcer index: control 41.0 ± 10.9; for ED50: po, rat, per os, read-out: ED50 values in rat ulcer models, hydrochloric acid-ethanol induced ulcer; for suppression of ulcers induced by hydrochloric acid-ethanol (in words): rats
# Protocol: Experiments were carried out to investigate the pharmacological activity of Compound RT using ulcer models in Wister male rats. Comparative tests were performed using commercial antiulcer drugs; Cetraxate (trade mark) and Roxatidine (trade mark), each having the following chemical structure. [drawing 11] [(Ulcer index for the control)-(Ulcer index for the tested animal)]/(Ulcer index for the control)×100 Groups of Wister male rats weighing 200-230 g, each group consisting of four rats, were fasted for 24 hours and subjected to the experiment. Cetraxate and Roxatidine, each suspended in 0.5% CMC, were administered to the rats using a per os probe, in an amount of 0.4 ml/100 g. […] After 1 hour, rats were sacrificed to cut out their stomach. 10 ml of a 2% formalin solution was charged into each stomach and the stomach was fixed in the solution for 10 minutes. After fixing, the stomach was opened along the greater curvature, and its mucosal surface was roughly washed with water. […] The total of such length (mm) in each animal was taken as an index for the ulcer production. The ulcer suppression rate (%) was determined in the same manner as above. (3) In order to more clearly identify the activity of Compound RT, both Roxatidine and Cetraxate hydrochloride were administered altogether.
# [2] = tested on: water immersion restrained stress induced ulcer; experiment: Water immersion restrained stress induced model; type: in vivo, Wister male rats; details: for Suppression / Ulcer index: water immersion stress 7 hours; for Ulcer index: control 10.3 ± 4.5; for ED50: po, rat, per os, read-out: ED50 values in rat ulcer models, water immersion restrained stress induced model; for suppression of ulcers induced by the water dipping stress (in words): rats
# Protocol: Experiments were carried out to investigate the pharmacological activity of Compound RT using ulcer models in Wister male rats. […] Cetraxate and Roxatidine, each suspended in 0.5% carboxymethyl cellulose (CMC), were administered to the rats using a per os probe, in an amount of 0.4 ml/100 g. 10 to 20 minutes after the administration, the animals were placed in an stress cage (manufactured by Natsume Manufacturing Co.) and dipped into water in a thermostat water bath at 21° C. to a depth of their processus xiphoideus to give a stress. After 7 hours, rats were taken out from the cage and sacrificed to cut out their stomach. 10 ml of a 2% formalin solution was charged into each stomach and the stomach was fixed in the solution for 10 minutes. After fixing, the stomach was opened along the greater curvature, and its mucosal surface was roughly washed with water. […] The total of such length (mm) in each animal was taken as an index for the ulcer production. The ulcer suppression rate (%) was determined based on the index applying the following formula. [(Ulcer index for the control)-(Ulcer index for the tested animal)]/(Ulcer index for the control)×100 (3) In order to more clearly identify the activity of Compound RT, both Roxatidine and Cetraxate hydrochloride were administered altogether.
# [3] = hydrochloric acid-ethanol model, than Cetraxate and Roxatidine
# [4] = water immersion model, than Cetraxate and Roxatidine
smiles,measurement,setting,value
"NC[C@H]1CC[C@H](C(=O)Oc2ccc(CCC(=O)O)cc2)CC1 [Cetraxate, reference compound]",Suppression,[1]; 40 mg/kg per os,12.5%
same,Ulcer index,[1]; 40 mg/kg per os,35.9 ± 14.7 mm
same,ED50,[1],60 mg/kg
same,Suppression,[2]; 25 mg/kg per os,41.7%
same,Ulcer index,[2]; 25 mg/kg per os,6.0 ± 3.3 mm
same,ED50,[2],200 mg/kg
"NC[C@H]1CC[C@H](C(=O)OCC(=O)NCCCOc2cccc(CN3CCCCC3)c2)CC1 [Compound RT, 2-(trans-p-aminomethylcyclohexanecarboxy)-N-{3-[3-(1-piperidinomethyl)phenoxy]propyl}acetamide]",Suppression,[1]; 58 mg/kg per os,87.6%
same,Ulcer index,[1]; 58 mg/kg per os,5.1 ± 5.5 mm
same,rate of suppression compared with Cetraxate and Roxatidine (in words),[1]; [3],higher rate of suppression
same,ulcer index compared with Cetraxate and Roxatidine (in words),[1]; [3],lower ulcer index
same,suppression of ulcers induced by hydrochloric acid-ethanol (in words),[1],effectively suppress the ulcers
same,activity against the hydrochloric acid-ethanol induced ulcer compared with combined Roxatidine and Cetraxate hydrochloride (in words),[1]; versus Roxatidine and Cetraxate hydrochloride administered altogether,almost the same as the case where both Roxatidine and Cetraxate hydrochloride were administered altogether
same,Suppression,[2]; 36 mg/kg per os,93.2%
same,Ulcer index,[2]; 36 mg/kg per os,0.7 ± 0.5 mm
same,suppression of ulcers induced by the water dipping stress (in words),[2],effectively suppress the ulcers
same,effect on the suppression of the acute gastroduodenal ulcer compared with combined use of the two comparative drugs (in words),[2]; versus combined use of the two comparative drugs,remarkably greater effect
same,rate of suppression compared with Cetraxate and Roxatidine (in words),[2]; [4],higher rate of suppression
same,ulcer index compared with Cetraxate and Roxatidine (in words),[2]; [4],lower ulcer index
"O=C(COC(=O)[C@H]1CC[C@H](CNC(=O)OCc2ccccc2)CC1)NCCCOc1cccc(CN2CCCCC2)c1 [Compound RTP, 2-(N-carbobenzoxy-trans-p-aminomethylhexanecarboxy)-N-{3-[3-(1-piperidinomethyl)-phenoxy]propyl}acetamide]",suppression of ulcers induced by hydrochloric acid-ethanol (in words),[1],effectively suppress the ulcers
same,suppression of ulcers induced by the water dipping stress (in words),[2],effectively suppress the ulcers
"O=C(CO)NCCCOc1cccc(CN2CCCCC2)c1 [Roxatidine, N-[3-(3-piperidinomethylphenoxy)propyl]hydroxyacetamide, reference compound]",Suppression,[1]; 40 mg/kg per os,64.2%
same,Ulcer index,[1]; 40 mg/kg per os,14.7 ± 9.9 mm
same,ED50,[1],40 mg/kg
same,Suppression,[2]; 25 mg/kg per os,75.7%
same,Ulcer index,[2]; 25 mg/kg per os,2.5 ± 1.6 mm
same,ED50,[2],25 mg/kg
